Reference: the NIST ThermoML archive (doi:10.1021/je5010214)

Settings: Liquid, Vibrating tube method

CCCCO [butan-1-ol]
Settings | mass density [kg/m3]
323.15 K, 34081 kPa | 811.155
323.15 K, 35113 kPa | 811.773
323.15 K, 37953 kPa | 813.623
323.15 K, 42011 kPa | 816.075
323.15 K, 48025 kPa | 819.642
323.15 K, 49934 kPa | 820.799
323.15 K, 52114 kPa | 821.994
323.15 K, 54964 kPa | 823.594
323.15 K, 58045 kPa | 825.293
323.15 K, 60050 kPa | 826.448
323.15 K, 62131 kPa | 827.565
323.15 K, 64999 kPa | 829.093
323.16 K, 920.7 kPa | 786.888
323.16 K, 27958 kPa | 807.28
323.16 K, 30055 kPa | 808.674
323.16 K, 33067 kPa | 810.61
323.16 K, 40047 kPa | 814.861
323.16 K, 44937 kPa | 817.856
323.16 K, 66131 kPa | 829.687
328.15 K, 97.9 kPa | 781.987
328.15 K, 289.9 kPa | 782.179
328.15 K, 897.5 kPa | 782.733
328.15 K, 994.1 kPa | 782.825
328.15 K, 1988.8 kPa | 783.741
328.15 K, 2996.7 kPa | 784.66
328.15 K, 5013.4 kPa | 786.446
328.15 K, 6974.9 kPa | 788.15
328.15 K, 9017 kPa | 789.881
328.15 K, 10040 kPa | 790.727
328.15 K, 24924 kPa | 802.164
328.15 K, 27979 kPa | 804.324
328.15 K, 29958 kPa | 805.68
328.15 K, 32060 kPa | 807.104
328.15 K, 33066 kPa | 807.772
328.15 K, 33107 kPa | 807.703
328.15 K, 34013 kPa | 808.285
328.15 K, 35030 kPa | 808.989
328.15 K, 38010 kPa | 810.915
328.15 K, 39969 kPa | 812.181
328.15 K, 41959 kPa | 813.311
328.15 K, 44953 kPa | 815.144
328.15 K, 47978 kPa | 816.959
328.15 K, 49927 kPa | 818.128
328.15 K, 51997 kPa | 819.32
328.15 K, 54947 kPa | 821.045
328.15 K, 57939 kPa | 822.658
328.15 K, 59991 kPa | 823.77
328.15 K, 61982 kPa | 824.89
328.15 K, 65032 kPa | 826.439
328.15 K, 66046 kPa | 826.965
328.16 K, 501 kPa | 782.371
328.16 K, 12210 kPa | 792.522
328.16 K, 15055 kPa | 794.783
328.16 K, 18061 kPa | 797.122
328.16 K, 20279 kPa | 798.799
328.16 K, 22013 kPa | 800.057
333.15 K, 532.6 kPa | 779.903
333.15 K, 897.8 kPa | 780.245
333.15 K, 1987.2 kPa | 781.249
333.15 K, 3023.4 kPa | 782.177
333.15 K, 4997.4 kPa | 783.921
333.15 K, 7002.4 kPa | 785.686
333.15 K, 9032 kPa | 787.401
333.15 K, 10210 kPa | 788.367
333.15 K, 15008 kPa | 792.251
333.15 K, 22034 kPa | 797.567
333.15 K, 28040 kPa | 801.782
333.15 K, 30016 kPa | 803.156
333.15 K, 32067 kPa | 804.524
333.15 K, 34086 kPa | 805.827
333.15 K, 35075 kPa | 806.492
333.15 K, 37894 kPa | 808.332
333.15 K, 40111 kPa | 809.759
333.15 K, 41947 kPa | 810.938
333.15 K, 44974 kPa | 812.823
333.15 K, 45490 kPa | 813.093
333.15 K, 47936 kPa | 814.509
333.15 K, 49920 kPa | 815.727
333.15 K, 51953 kPa | 816.927
333.15 K, 54876 kPa | 818.691
333.15 K, 58057 kPa | 820.5
333.15 K, 59993 kPa | 821.547
333.15 K, 62049 kPa | 822.689
333.15 K, 64970 kPa | 824.293
333.15 K, 66005 kPa | 824.853
333.16 K, 87.7 kPa | 779.482
333.16 K, 303.5 kPa | 779.691
333.16 K, 1003 kPa | 780.346
333.16 K, 12011 kPa | 789.847
333.16 K, 17992 kPa | 794.568
333.16 K, 20036 kPa | 796.123
333.16 K, 25027 kPa | 799.667
333.16 K, 33073 kPa | 805.134
338.15 K, 80.9 kPa | 775.106
338.15 K, 309.8 kPa | 775.333
338.15 K, 561.6 kPa | 775.578
338.15 K, 898.5 kPa | 775.911
338.15 K, 1014.1 kPa | 776.019
338.15 K, 2936.1 kPa | 777.859
338.15 K, 5018.6 kPa | 779.821
338.15 K, 10034 kPa | 784.276
338.15 K, 14885 kPa | 788.349
338.15 K, 17956 kPa | 790.925
338.15 K, 19927 kPa | 792.473
338.15 K, 22041 kPa | 794.077
338.15 K, 25026 kPa | 796.362
338.15 K, 29994 kPa | 799.911
338.15 K, 32882 kPa | 801.907
338.15 K, 33937 kPa | 802.603
338.15 K, 35012 kPa | 803.345
338.15 K, 39987 kPa | 806.717
338.15 K, 41990 kPa | 808.025
338.15 K, 44978 kPa | 809.926
338.15 K, 47971 kPa | 811.881
338.15 K, 49999 kPa | 813.099
338.15 K, 52127 kPa | 814.375
338.15 K, 57940 kPa | 817.865
338.15 K, 60014 kPa | 819.058
338.15 K, 65012 kPa | 821.872
338.15 K, 66057 kPa | 822.451
338.16 K, 2000.2 kPa | 776.987
338.16 K, 6917.3 kPa | 781.55
338.16 K, 9046.9 kPa | 783.457
338.16 K, 11959 kPa | 785.981
338.16 K, 27976 kPa | 798.446
338.16 K, 31949 kPa | 801.318
338.16 K, 37962 kPa | 805.345
338.16 K, 54992 kPa | 816.085
338.16 K, 62074 kPa | 820.252
338.16 K, 67534 kPa | 823.221
343.15 K, 73.7 kPa | 769.631
343.15 K, 297.3 kPa | 769.853
343.15 K, 520.3 kPa | 770.07
343.15 K, 911.7 kPa | 770.459
343.15 K, 1017.7 kPa | 770.563
343.15 K, 1994.6 kPa | 771.497
343.15 K, 2332.5 kPa | 771.83
343.15 K, 2968.3 kPa | 772.434
343.15 K, 4994.8 kPa | 774.313
343.15 K, 6976.6 kPa | 776.117
343.15 K, 9002.6 kPa | 777.941
343.15 K, 10060 kPa | 778.847
343.15 K, 12025 kPa | 780.506
343.15 K, 14928 kPa | 782.929
343.15 K, 17975 kPa | 785.398
343.15 K, 19985 kPa | 786.983
343.15 K, 22033 kPa | 788.56
343.15 K, 25091 kPa | 790.858
343.15 K, 28045 kPa | 793.012
343.15 K, 30082 kPa | 794.441
343.15 K, 32170 kPa | 795.891
343.15 K, 33097 kPa | 796.546
343.15 K, 35030 kPa | 797.771
343.15 K, 37943 kPa | 799.701
343.15 K, 40012 kPa | 801.058
343.15 K, 41972 kPa | 802.307
